In PubChem BioAssay AID1508612:

Assay: passive permeability, PAMPA, ADME assay (AID 1508612)
Conditions: pH 7.4, 30.0 min, 50.0 µM

Row | Structure (SMILES) | Papp
1 | CC(C)C[C@H]1C(=O)N2CCC[C@H]2[C@]2(O)O[C@](NC(=O)[C@@H]3C=C4c5cccc6[nH]c(Br)c(c56)C[C@H]4N(C)C3)(C(C)C)C(=O)N12 | 876 ×10⁻⁶ cm/s
2 | O=C(Nc1nc(-c2ccccc2)cs1)c1ccncc1NS(=O)(=O)c1cccc2cccnc12 | 445 ×10⁻⁶ cm/s
3 | Cc1ccc(CCNC(=O)C2CCCN(C(=O)c3cc4sccc4n3C)C2)cc1 (stereo not given) | > 1000 ×10⁻⁶ cm/s
4 | O=c1[nH]cnc2c1ccn2C1OC(CO)C(O)C1O (stereo not given) | 3.01 ×10⁻⁶ cm/s
5 | Cc1nn2c(c1-c1ccccc1OCc1ccccc1)N(C(=O)Cc1ccc3c(c1)OCO3)CCC2 | > 1000 ×10⁻⁶ cm/s
6 | COc1ccc2cc1Oc1ccc(cc1)C[C@@H]1c3c(cc(OC)c4c3Oc3cc5c(cc3O4)CCN[C@H]5C2)CCN1C | 217 ×10⁻⁶ cm/s
7 | Cc1cc(-c2nnc3n2CCCCC3)c(C)n1-c1ccc(Cl)cc1 | > 1000 ×10⁻⁶ cm/s
8 | Nc1ccc(S(=O)(=O)Nc2cnccc2C(=O)Nc2nc(-c3ccccc3)cs2)cc1 | 101 ×10⁻⁶ cm/s
9 | NC(=O)C1CCN(c2nc(-c3cccc4sc5ccccc5c34)cs2)CC1 | 364 ×10⁻⁶ cm/s
10 | CCC(CC)c1cc([C@H]2CN3CC[C@H]2C[C@@H]3CNC(=O)COc2ccccc2)nc(-c2ccncc2)n1 | 790 ×10⁻⁶ cm/s
11 | Cc1ccc(-n2c(C)cc(-c3nnc4n3CCCCC4)c2C)cc1 | > 1000 ×10⁻⁶ cm/s
12 | CC(=O)c1c(C)[nH]c(C(=O)N(C)C)c1C | 57.4 ×10⁻⁶ cm/s
13 | O=C(c1ccc2c(c1)ncn2-c1cccc(C(F)(F)F)c1)N1CCCCC1 | > 1000 ×10⁻⁶ cm/s
14 | O=C(Nc1nc(-c2ccccc2)cs1)c1ccncc1NS(=O)(=O)c1cccc(Cl)c1 | 754 ×10⁻⁶ cm/s
15 | FC(F)(F)c1ccc(N2CCN(C(=S)Nc3ccccn3)CC2)cc1 | 815 ×10⁻⁶ cm/s
16 | O=C1CCCC2=C1C(c1[nH]ncc1Cl)N=C(Nc1nc3ccccc3o1)N2 (stereo not given) | 718 ×10⁻⁶ cm/s
17 | O=C1c2ccccc2C2=Nc3ccccc3SC(c3ccc(Cl)cc3)C12 (stereo not given) | < 1 ×10⁻⁶ cm/s
18 | FC(F)(F)Oc1cccc(Nc2nc(-c3ccncc3)nc3ccccc23)c1 | 226 ×10⁻⁶ cm/s
19 | Fc1cc(Nc2nc(-c3ccncc3)nc3ccccc23)ccc1-c1cccc(OC(F)F)c1 | 30.1 ×10⁻⁶ cm/s
20 | O=C1Nc2ccc(Cl)cc2/C1=C\c1cc(Cl)c(O)c(Cl)c1 | 69.5 ×10⁻⁶ cm/s
21 | CS(=O)(=O)CCNCc1ccc(-c2ccc3ncnc(Nc4ccc(OCc5cccc(F)c5)c(Cl)c4)c3c2)o1 | < 1 ×10⁻⁶ cm/s
22 | Cc1ccc(-c2cc(C(=O)NC3CCCCC3)c3ccccc3n2)cc1 | > 1000 ×10⁻⁶ cm/s
23 | COc1ccccc1C(=O)Nc1ccccc1C(=O)Nc1cccc(S(=O)(=O)C(F)(F)F)c1 | 7.6 ×10⁻⁶ cm/s
24 | COc1ccccc1N1CCN(CCN(C(=O)c2ccc(I)cc2)c2ccccn2)CC1 | > 1000 ×10⁻⁶ cm/s

Row | Structure (SMILES) | Papp
25 | CCC(=O)N1CCN(c2ccc(-n3c(=O)ccc4cnc5ccc(-c6cnc7ccccc7c6)cc5c43)cc2C(F)(F)F)CC1 | 178 ×10⁻⁶ cm/s
26 | Cc1ccc(S(=O)(=O)N2CCN(C(=O)c3cc4c(s3)CCC4)CC2)cc1 | > 1000 ×10⁻⁶ cm/s
27 | O=[S+]([O-])(Nc1ccccc1)c1ccc(NCc2cccc(Cl)c2F)cc1 | 383 ×10⁻⁶ cm/s
28 | COc1ccccc1Nc1ccnc(N2CCN(C(=O)c3ccccc3Cl)CC2)n1 | 173 ×10⁻⁶ cm/s
29 | O=S(=O)(Nc1nccs1)c1ccc(NCc2cccc(Br)c2O)cc1 | 72.7 ×10⁻⁶ cm/s
30 | Nc1nc(Nc2ccc(S(N)(=O)=O)cc2)nn1C(=O)c1c(F)cccc1F | 1.61 ×10⁻⁶ cm/s
31 | CCCCN(CC)CCNC(=O)c1cc2c(-c3ccc(Cl)cc3)nn(C)c2s1 | > 1000 ×10⁻⁶ cm/s
32 | COc1cccc(NC(=S)N2CCN(c3cccc(C(F)(F)F)c3)CC2)n1 | 735 ×10⁻⁶ cm/s
33 | C[S+](=O)([O-])c1ccc(-c2nc(C(=O)N3CCOCC3)n3ccncc23)cc1 | 8.31 ×10⁻⁶ cm/s
34 | O=C(Nc1ccc(C(=O)Nc2nccs2)cc1)c1ccc2ccccc2c1 | > 1000 ×10⁻⁶ cm/s
35 | COc1cccc(C(=O)Nc2ccc3c(N4CCOCC4)ncnc3c2)c1 | 39 ×10⁻⁶ cm/s
36 | Cc1c(NC2=C(Cl)C(=O)N(c3ccccc3)C2=O)c(=O)n(-c2ccccc2)n1C | 123 ×10⁻⁶ cm/s
37 | NC(=O)C1CCN(c2nc(-c3cccc(Br)c3)cs2)CC1 | 788 ×10⁻⁶ cm/s
38 | O=C1CCCCc2cc(O)c(O)cc21 | 20.9 ×10⁻⁶ cm/s
39 | Cc1ccccc1C(=O)N1CCc2cc(-c3csc(NC(=O)Cc4ccc5c(c4)OCO5)n3)ccc21 | > 1000 ×10⁻⁶ cm/s
40 | O=C(Nc1nc(-c2ccccc2)cs1)c1ccncc1NS(=O)(=O)c1ccc(F)cc1 | 748 ×10⁻⁶ cm/s
41 | O=C(Cc1ccc2ccccc2c1)Nc1ccc(S(=O)(=O)Nc2nccs2)cc1 | 16.9 ×10⁻⁶ cm/s
42 | Cc1ccc(S(=O)(=O)Nc2cnccc2C(=O)Nc2cccc3ccccc23)cc1 | 288 ×10⁻⁶ cm/s
43 | CC(=O)c1cccc(-c2csc3ncnc(Sc4nnnn4C)c23)c1 | 239 ×10⁻⁶ cm/s
44 | COC(=O)CNC(=O)c1nc(-c2ccc([S+](C)(=O)[O-])cc2)c2ccccn12 | 330 ×10⁻⁶ cm/s
45 | CC(C)(N)CNC(=O)CC1CCC2(CC1)OOC1(O2)C2CC3CC(C2)CC1C3 (stereo not given) | 488 ×10⁻⁶ cm/s
46 | CCOc1ccccc1N(CC(=O)N1CCOCC1)S(=O)(=O)c1ccc(SC)cc1 | 550 ×10⁻⁶ cm/s
47 | N=c1c2c(n(Cc3ccccc3)c3c1CCC3)CCC2 | < 1 ×10⁻⁶ cm/s

Now from value to compound:

Row | Papp | Structure (SMILES)
48 | < 1 ×10⁻⁶ cm/s | Cc1ccc(C(=O)N2CCc3c(nc4cc(-c5ccccc5)[nH]n4c3=O)C2)cn1
49 | 414 ×10⁻⁶ cm/s | Cc1nc([C@](C)(O)CO)sc1-c1cnc(N)c(O[C@H](C)c2cc(F)ccc2-n2nccn2)c1
50 | > 1000 ×10⁻⁶ cm/s | CCOC(=O)c1[nH]c(C)c(CCC(=O)N2CCN(c3cc(C)ccc3C)CC2)c1C
51 | 28.9 ×10⁻⁶ cm/s | COc1cc(-c2cn(C)c(=O)c3cnccc23)c(OC)cc1CN(C)C
52 | > 1000 ×10⁻⁶ cm/s | CCCN(C(=O)c1sc2nc3n(c(=O)c2c1C)CCCC3)c1ccccc1C
53 | > 1000 ×10⁻⁶ cm/s | CCC(C)N(C)C(=O)c1cc2ccccc2c(-c2ccccc2Cl)n1 (stereo not given)
54 | 442 ×10⁻⁶ cm/s | COc1ccc(CCNC(=O)Cn2c(=O)c3cccn3c3ccc(F)cc32)cc1OC
55 | 797 ×10⁻⁶ cm/s | O=C(NCc1ccc(S(=O)(=O)c2cccc(C(F)(F)F)c2)cc1)c1cnc2[nH]ncc2c1
56 | 77.2 ×10⁻⁶ cm/s | COCCCNC(=O)c1cc2cc(S(=O)(=O)N(C)C)ccc2n1C
57 | 7.01 ×10⁻⁶ cm/s | Cc1noc(C)c1Cc1ccc(C(=O)N2CCc3c(nc4cc(-c5ccccc5)[nH]n4c3=O)C2)o1
58 | 38.1 ×10⁻⁶ cm/s | COc1ccc(C(=O)NC2CCCc3c2[nH]c2ccccc32)cc1OC (stereo not given)
59 | 79 ×10⁻⁶ cm/s | COc1ccc2[nH]c3c(c2c1)CCNC31CCN(S(=O)(=O)c2c(C)noc2C)CC1
60 | < 1 ×10⁻⁶ cm/s | CCOC(=O)N1CCc2c(sc(NCc3sccc3C)c2C(=O)Nc2cc(Cl)ccc2OC)C1
61 | 695 ×10⁻⁶ cm/s | CNC(=O)c1ccc(C)c(-n2c(C)cc(OCc3ccc(F)cc3F)c(Br)c2=O)c1
62 | > 1000 ×10⁻⁶ cm/s | Nc1cc(-c2nc(Nc3ccc(F)c(F)c3)c3ccccc3n2)ccn1
63 | 183 ×10⁻⁶ cm/s | COc1ccc2[nH]c(S(=O)Cc3ncc(C)c(OC)c3C)nc2n1 (stereo not given)
64 | > 1000 ×10⁻⁶ cm/s | CCCNC(=O)c1ccc2c(c1)N=C(C)c1c(C)ccc(C)c1S2
65 | 916 ×10⁻⁶ cm/s | Cc1cccc(-n2ncc3c2CCCC3NC(=O)c2c(F)ccc(F)c2F)c1C (stereo not given)
66 | 798 ×10⁻⁶ cm/s | Cc1ccc(-c2cc(C(=O)Nc3ncco3)c3ccccc3n2)cc1C
67 | 2.87 ×10⁻⁶ cm/s | Cc1cnc(-c2ccccc2C2COC2)nc1NCc1ccc(-c2cccnc2)cc1
68 | 497 ×10⁻⁶ cm/s | Cc1ccccc1CSc1nc2ncc(Br)cc2[nH]1
69 | 507 ×10⁻⁶ cm/s | C#CCNC(=O)c1nc(-c2cccnc2)c2ccccn12
70 | > 1000 ×10⁻⁶ cm/s | CCCNC(=O)c1ccc2c(c1)ncn2-c1cc(C)cc(C)c1
71 | 597 ×10⁻⁶ cm/s | Cc1cc2c(C(N)=O)cccc2n1-c1nc2c(c(NCc3ccccc3)n1)COCC2
72 | 36.1 ×10⁻⁶ cm/s | Fc1cc(Nc2nc(-c3ccncc3)nc3ccccc23)ccc1-c1cn[nH]c1
73 | 52.1 ×10⁻⁶ cm/s | C[C@@]1(c2ncncc2F)NC(=O)c2cc(-c3cn[nH]c3)ccc21
74 | 807 ×10⁻⁶ cm/s | Clc1ccc2ncc(-c3cccc(NC4CCNCC4)n3)n2c1
75 | 889 ×10⁻⁶ cm/s | CCN(CC)C(=O)c1ccc2c(c1)ncn2-c1cccc(C)c1
